Source: PMC11050067, “Development of a Novel, Potent, and Selective Sialyltransferase Inhibitor for Suppressing Cancer Metastasis” (International Journal of Molecular Sciences, 2024)

Assays:
ST3GAL3 = target: T1, ST3GAL3 (Homo sapiens, UniProt Q11203); assay: phosphatase-coupled sialyltransferase activity assay (EA002 kit) with recombinant enzyme; assay type: biochemical
T1 construct: recombinant Human ST3GAL3 (R&D systems #10554-GT)
T1 sequence (Q11203 1-375): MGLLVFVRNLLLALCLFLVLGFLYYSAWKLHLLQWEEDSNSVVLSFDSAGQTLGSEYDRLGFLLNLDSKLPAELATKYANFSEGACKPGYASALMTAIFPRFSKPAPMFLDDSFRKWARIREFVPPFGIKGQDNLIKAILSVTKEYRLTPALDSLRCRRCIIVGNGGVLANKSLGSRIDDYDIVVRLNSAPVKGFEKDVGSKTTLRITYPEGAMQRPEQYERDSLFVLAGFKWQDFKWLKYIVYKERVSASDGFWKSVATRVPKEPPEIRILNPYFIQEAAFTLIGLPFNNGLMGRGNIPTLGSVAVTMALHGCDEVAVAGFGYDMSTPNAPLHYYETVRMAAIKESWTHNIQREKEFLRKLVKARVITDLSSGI

ST6GAL1 = target: T2, ST6GAL1 (Homo sapiens, UniProt P15907); assay: HPLC assay of sialylation of Galβ[…]-4GlcNAc with CMP-Neu5Ac by recombinant enzyme; assay type: biochemical
T2 construct: recombinant Human ST6GAL1 (R&D systems #7620-GT)
T2 sequence (P15907 27-406): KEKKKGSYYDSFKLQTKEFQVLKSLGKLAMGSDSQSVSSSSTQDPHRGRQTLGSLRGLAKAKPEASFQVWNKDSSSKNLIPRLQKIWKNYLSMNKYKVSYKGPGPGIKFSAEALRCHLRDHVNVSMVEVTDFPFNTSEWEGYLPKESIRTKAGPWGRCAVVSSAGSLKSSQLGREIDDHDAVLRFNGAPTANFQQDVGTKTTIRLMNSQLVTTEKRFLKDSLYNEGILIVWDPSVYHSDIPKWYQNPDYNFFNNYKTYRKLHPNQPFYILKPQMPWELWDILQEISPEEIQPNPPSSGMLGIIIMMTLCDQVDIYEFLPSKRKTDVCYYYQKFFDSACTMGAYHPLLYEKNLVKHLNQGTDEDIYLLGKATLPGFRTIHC

C[C@H](CCC(=O)OCCOCCOCCN=[N+]=[N-])C1CCC2C3CC[C@@H]4C[C@H](NC(=O)[C@H](CC(=O)O)Nc5ccc([N+](=O)[O-])c6nonc56)CC[C@]4(C)C3CC[C@@]21C (some centres unmarked) [FCW393]
IC50 (ST3GAL3): 9.45 ± 0.11 µM | IC50 (ST6GAL1): 7.76 ± 0.06 µM
